Columns and labels:
[1] = Biodistribution after single Carboxylated CTX-Cryptophycin dose in NRP1 WT or KO PC-3 xenografts in SCID mice; type: in vivo, mouse; settings: single 0.6 mg/kg Carboxylated CTX-Cryptophycin IV
Experimental: Cells used were human prostate cancer cells, PC-3 (ATCC® CRL-1435™) engineered at WuXi AppTec to generate an isogenic pair of cell lines WT (PC-3-sg1-4 WT cells) and KO (PC-3-sg1-9 KO cells) for NRP1. Mice used were female, ˜6 week old, immune compromised NOD. SCID from Charles River laboratories. Identical experiments were performed side by side in the isogenic xenograft models. Drug administration was performed when tumor size reached ˜300 to 500 mm^3. A single dose of Carboxylated CTX-Cryptophycin at 0.6 mg/kg was administered (to mimic dose where differential efficacy was observed) intravenously in the following vehicle: 10% EtOH, 5% Tween80 and 85% saline. Animals were euthanized and whole blood (cardiac puncture) and tumor tissues harvested at predetermined time points from 5 min to 96 h post-dose (n=3 mice per time point). Blood samples were centrifuged to obtain plasma and subsequently stored at −20° C. or lower pending analysis. Tumors were harvested by removing the entire specimen from surrounding tissues. Specimens were immediately rinsed with normal saline solution, blotted dry, then weighed and stored at −20° C. or lower pending analysis. Tumor tissue was cryofractured using the Covaris Cryoprep System (Covaris, Inc.). Once pulverized, samples were lysed in 3:1 (v:w) 1×PBS containing 1× Halt™ Protease Inhibitor Cocktail and 1×EDTA solution (Thermo Scientific, Product No. 78430). Plasma and homogenized tissue samples were extracted via protein precipitation with 3:1 (v:v) methanol:acetonitrile 1:1 (v:v) containing 0.1% acetic acid. […] Pharmacokinetic (PK) parameters were calculated using non-compartmental analysis in C3PO (a proprietary Eisai compound database and pharmacokinetic analysis tool). Mean plasma and tissue concentrations were used to calculate mean PK parameters.

[2] = system: PC-3 human prostate cancer cells; assay: Co-administration of Cryptophycin Payload with CTX or iRGD in subcutaneous PC-3 xenograft model; type: in vivo, mouse; settings: Cryptophycin Payload alone at 0.4 mg/kg IV
Experimental: PC-3 human prostate cancer cells (ATCC CRL-1435) were grown in RPMI-1640 medium supplemented with 10% FBS. For inoculation, 2×10^6 PC-3 cancer cells were injected subcutaneously into mice near the right axillary area using a 27-gauge needle in a volume of 0.1 mL. Mice were immune-compromised NU/NU nude females, approximately 6 weeks old from Charles River Labs. Tumors were measured at least twice weekly using calipers and mice were randomized into treatment groups based on tumor size when the average tumor reached approximately 180 mm^3. All treatments were initiated 17 days after tumor inoculation. The experiment included a vehicle-treated group and drug-treated groups (n=5). […]
General health of the mice was monitored and mortality recorded daily. Tumor volume was assessed by caliper (Mitutoyo, Aurora, IL) measurements (mm) using the formula (1×w^2)/2=mm^3, where 1 and w refer to the larger and smaller perpendicular dimensions collected at each measurement. Tumor dimensions were recorded twice per week starting at the initiation of drug treatment. Body weights were recorded twice per week starting on the first day of treatment. Relative body weight was calculated as follows: Relative body weight=(body weight on day of measurement/body weight on first day of treatment). […] The mean±SEM for tumor volume and mean±SEM for relative body weight for each experimental group was calculated. […]

Structure (SMILES) | Tumor AUC0-96 h of Cryptophycin Metabolite 1 ([1]; NRP1 KO tumors) | Tumor tmax of Cryptophycin Metabolite 1 ([1]; NRP1 KO tumors) | Tumor AUC0-96 h of Cryptophycin Metabolite 1 ([1]; NRP1 WT tumors) | Tumor tmax of Cryptophycin Metabolite 1 ([1]; NRP1 WT tumors) | Antitumor activity (tumor volume) [2]
COc1ccc(CC2NC(=O)C=CCC(C(C)C3OC3c3ccc(CN4CCN(CCC(C)(C)SC)CC4)cc3)OC(=O)C(CC(C)C)NC(=O)C(C)(C)CNC2=O)cc1Cl (centres unmarked) [Cryptophycin Metabolite 1] | 385 pmol·h/g | 24 h | 1494 pmol·h/g | 48 h | –
CCCCNC(=O)Cc1ccccc1SSC(C)(C)CCN1CCN(Cc2ccc(C3OC3C(C)C3CC=CC(=O)NC(Cc4ccc(OC)c(Cl)c4)C(=O)NCC(C)(C)C(=O)NC(CC(C)C)C(=O)O3)cc2)CC1 (centres unmarked) [Cryptophycin Payload] | – | – | – | – | significant antitumor activity

Source: patent publication US11826399B2, “Chlorotoxin agents and uses thereof” (Eisai Inc., priority 2017, dated 2023)
